Among the data in the Kinase Knowledgebase extract (Sharma et al. 2016) are IC50 values, retold here.

The structures appear in SMILES notation. pIC50: −log10 of the molar value. Some results are limits rather than exact numbers.

By pIC50 is commonly meant the negative decadic logarithm of the IC50, by convention in mol/L. Low values mean a high IC50, high ones a low IC50.

For this assay, the target named is PIK3CA (human) (UniProt P42336). As to the kind of experiment: Assessment of PIK3CA Kinase Activity.
Chain of PIK3CA (human) (P42336 whole entry, looked up): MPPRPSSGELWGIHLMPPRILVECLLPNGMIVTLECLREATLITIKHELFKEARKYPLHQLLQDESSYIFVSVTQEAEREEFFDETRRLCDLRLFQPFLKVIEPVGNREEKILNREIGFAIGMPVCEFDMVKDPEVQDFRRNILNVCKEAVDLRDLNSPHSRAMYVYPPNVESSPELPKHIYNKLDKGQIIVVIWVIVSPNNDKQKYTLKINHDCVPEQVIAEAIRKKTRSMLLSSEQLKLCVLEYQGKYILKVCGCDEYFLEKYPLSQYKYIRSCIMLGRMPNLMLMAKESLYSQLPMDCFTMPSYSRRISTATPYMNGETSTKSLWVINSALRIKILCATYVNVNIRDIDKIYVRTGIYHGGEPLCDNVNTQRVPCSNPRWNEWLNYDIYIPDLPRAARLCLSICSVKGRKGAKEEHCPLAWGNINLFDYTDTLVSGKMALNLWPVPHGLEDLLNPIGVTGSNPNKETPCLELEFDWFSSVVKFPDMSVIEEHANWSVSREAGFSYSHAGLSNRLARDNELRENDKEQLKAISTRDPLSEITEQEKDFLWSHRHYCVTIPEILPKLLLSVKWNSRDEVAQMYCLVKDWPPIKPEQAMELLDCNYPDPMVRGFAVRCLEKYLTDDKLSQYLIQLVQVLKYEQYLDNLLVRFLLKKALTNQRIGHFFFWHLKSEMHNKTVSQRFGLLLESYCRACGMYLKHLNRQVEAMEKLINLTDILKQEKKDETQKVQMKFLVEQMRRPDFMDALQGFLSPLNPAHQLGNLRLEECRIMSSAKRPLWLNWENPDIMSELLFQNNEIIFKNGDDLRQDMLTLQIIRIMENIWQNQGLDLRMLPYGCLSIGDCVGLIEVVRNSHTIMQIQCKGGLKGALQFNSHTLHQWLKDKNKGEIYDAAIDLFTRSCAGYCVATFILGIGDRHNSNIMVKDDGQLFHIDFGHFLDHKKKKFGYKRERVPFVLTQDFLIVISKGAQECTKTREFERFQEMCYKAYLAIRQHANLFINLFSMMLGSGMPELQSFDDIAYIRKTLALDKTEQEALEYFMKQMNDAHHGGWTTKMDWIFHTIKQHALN
The molecule `Cc1cc(-c2cnc3sc(N)nc3c2)cc2c1OCCN(c1nccc(N)n1)C2` had a pIC50 of 6.30 to 7.00. `Cc1nc2ccc(-c3cc(C)c4c(c3)CN(c3nc(CN(C)C)nc(C)c3C(C)C)CCO4)cc2[nH]1` had a pIC50 of at least 7.00. On to `Cc1cc(-c2cnc3sc(N)nc3c2)cc2c1OCCN(c1nc(CN3CCCC3)ncc1C(C)C)C2`, for which the pIC50 was at least 7.00. The molecule `COCCc1nc(C)c(C(C)C)c(N2CCOc3c(C)cc(-c4cnc5sc(N)nc5c4)cc3C2)n1` showed a pIC50 of at least 7.00.

Molecule `C=Cc1c(C)ncnc1N1CCOc2c(C)cc(-c3cnc4sc(N)nc4c3)cc2C1` showed a pIC50 of at least 7.00. `Cc1cc(-c2cnc3sc(N)nc3c2)cc2c1OCCN(c1nc(S(C)(=O)=O)nc(C)c1C(C)C)C2` gave a pIC50 of at least 7.00.

For the molecule `Cc1cc(-c2cnc(Cl)c(NS(C)(=O)=O)c2)cc2c1OCCN(c1nc(N)ncc1C(F)(F)F)C2`, the pIC50 was at least 7.00. `CCc1cnc(CN(C)C)nc1N1CCOc2c(C)cc(-c3cnc4sc(N)nc4c3)cc2C1` gave a pIC50 of at least 7.00. As for `Cc1cc(-c2cnc(Cl)c(NS(C)(=O)=O)c2)cc2c1OCCN(c1nc(C(N)=O)nc(C)c1C(C)C)C2`, the pIC50 is at least 7.00. In the case of `Cc1cc(-c2cnc3sc(N)nc3c2)cc2c1OCCN(c1ncnc(C)c1C(C)C)C2`, the pIC50 is at least 7.00.

With `Cc1cc(-c2cnc(Cl)c(NS(=O)(=O)C(F)(F)F)c2)cc2c1OCCN(c1nc(N)nc(C)c1C(C)C)C2`, the negative-log IC50 (pIC50) was at least 7.00. `CNc1ncnc(N2CCOc3c(C)cc(-c4cnc5sc(N)nc5c4)cc3C2)c1[N+](=O)[O-]` gave a pIC50 of 6.30 to 7.00. For the molecule `COCC(C)c1c(C)nc(C)nc1N1CCOc2c(C)cc(-c3cnc4sc(N)nc4c3)cc2C1` (stereo not drawn), the negative logarithm of the IC50 (pIC50) is at least 7.00. `Cc1cc(-c2cnc3sc(N)nc3c2)cc2c1OCCN(c1nc(CF)nc(C)c1C(C)C)C2` gave a pIC50 of at least 7.00.

Molecule `Cc1cc(-c2cnc3sc(N)nc3c2)cc2c1OCCN(c1ccc(C#N)cn1)C2` showed a pIC50 of 6.30 to 7.00. In turn, `Cc1cc(-c2cnc3sc(N)nc3c2)cc2c1OCCN(c1nc(CN(C)C)nc(C)c1C(C)C)C2` had a pIC50 of at least 7.00. The molecule `COCCc1c(C)nc(C)nc1N1CCOc2c(C)cc(-c3cnc4sc(N)nc4c3)cc2C1` had a pIC50 of at least 7.00. Next, `Cc1cc(-c2cnc3sc(N)nc3c2)cc2c1OCCN(c1ncccc1C(N)=O)C2`: 6.30 to 7.00. `C#Cc1c(C)nc(N)nc1N1CCOc2c(C)cc(-c3cnc4sc(N)nc4c3)cc2C1` showed a pIC50 of at least 7.00. For `Cc1cc(-c2cnc3sc(N)nc3c2)cc2c1OCCN(c1nc(N)ccc1C#N)C2`, the pIC50 was at least 7.00. Take `Cc1cc(-c2cnc3sc(N)nc3c2)cc2c1OCCN(c1nc(C(O)C(F)(F)F)nc(C)c1C(C)C)C2` (stereo not drawn): the pIC50 is at least 7.00. `Cc1cc(-c2cccc(C(N)=O)c2)cc2c1OCCN(c1nc(N)nc(C)c1C(C)C)C2` gave a pIC50 of 6.30 to 7.00.

Molecule `CCN(Cc1nc(C)c(C(C)C)c(N2CCOc3c(C)cc(-c4cnc5nc[nH]c5c4)cc3C2)n1)CC(F)F` had a pIC50 of at least 7.00.

`CCc1c(Cl)nc(N)nc1N1CCOc2c(C)cc(-c3cnc4sc(N)nc4c3)cc2C1` had a pIC50 of at least 7.00. On to `Cc1cc(-c2cnc(Cl)c(NS(C)(=O)=O)c2)cc2c1OCCN(c1nc(C(=O)NCCN(C)C)nc(C)c1C(C)C)C2`, for which the pIC50 is at least 7.00. Next, `C#CCc1c(C)nc(C)nc1N1CCOc2c(C)cc(-c3cnc4sc(N)nc4c3)cc2C1`: at least 7.00. With `Cc1nc(C)c(C(C)C)c(N2CCOc3c(C)cc(-c4nnc(N)s4)cc3C2)n1`, the pIC50 was at least 7.00. Take `CCc1nc(CN(C)C)nc(N2CCOc3c(C)cc(-c4cnc5sc(N)nc5c4)cc3C2)c1C(C)C`: the negative-log IC50 (pIC50) was at least 7.00. In turn, `COCCc1c(C)nc(N)nc1N1CCOc2c(C)cc(-c3cnc4sc(N)nc4c3)cc2C1` gave a pIC50 of at least 7.00. Consider `Cc1cc(-c2cnc3sc(N)nc3c2)cc2c1OCCN(c1nc(CNCC(F)F)nc(C)c1C(C)C)C2`, for which the pIC50 is at least 7.00. In the case of `Cc1cc(-c2cnc3nc[nH]c3c2)cc2c1OCCN(c1nc(CN(C)CC(F)F)nc(C)c1C(C)C)C2` it was at least 7.00; in that of `Cc1nc2c(c(N3CCOc4c(C)cc(-c5cnc6sc(N)nc6c5)cc4C3)n1)CC(C)(C)CC2`, at least 7.00.

Consider `COc1cc(-c2cnc3sc(N)nc3c2)cc2c1OCCN(c1nc(N)nc(C)c1C(C)C)C2`, for which the pIC50 is at least 7.00.

As to `COCc1nc(C)c(C(C)C)c(N2CCOc3c(C)cc(-c4cnc5sc(N)nc5c4)cc3C2)n1`, the pIC50 was at least 7.00. Regarding `Cc1cc(-c2cnc3sc(N)nc3c2)cc2c1OCCN(c1nc(N3CCN(C)CC3)nc(C)c1C(C)C)C2`, the pIC50 was at least 7.00. Consider `Cc1cc(-c2cnc3sc(N)nc3c2)cc2c1OCCN(c1nc(C(C)O)nc(C)c1C(C)C)C2` (stereo not drawn), for which the pIC50 was at least 7.00. Turning to `COc1cc(-c2cnc3sc(N)nc3c2)cc2c1OCCN(c1nc(CN(C)C)nc(C)c1C(C)C)C2`, the pIC50 is at least 7.00. `Cc1cc(-c2cnc3sc(N)nc3c2)cc2c1OCCN(c1nc(CNCC(F)(F)F)nc(C)c1C(C)C)C2`: the pIC50 is at least 7.00. In the case of `CSc1nc(Cl)c(C(C)(C)O)c(N2CCOc3c(C)cc(-c4cnc5sc(N)nc5c4)cc3C2)n1` it was 6.30 to 7.00. In turn, `Cc1cc(-c2cnc3sc(N)nc3c2)cc2c1OCCN(c1nc(NCCN(C)C)nc(C)c1C(C)C)C2` showed a negative-log IC50 (pIC50) of at least 7.00.

Take `COc1ncc(-c2cc(C)c3c(c2)CN(c2nc(N)nc(C)c2C(C)C)CCO3)cc1NS(C)(=O)=O`: the pIC50 was at least 7.00. In the case of `Cc1cc(-c2cnc3sc(N)nc3c2)cc2c1OCCN(c1nc(N)c(C#N)cc1C#N)C2` it was at least 7.00; in that of `COCCc1nc(C)c(C(C)C)c(N2CCOc3c(C)cc(-c4cnc(Cl)c(NS(C)(=O)=O)c4)cc3C2)n1`, at least 7.00. With `Cc1nc(C)c(C(C)C)c(N2CCOc3c(C)cc(-c4cnc5sc(N)nc5c4)cc3C2)n1`, the pIC50 was at least 7.00. In the case of `C=Cc1c(Cl)nc(N)nc1N1CCOc2c(C)cc(-c3cnc4sc(N)nc4c3)cc2C1` it was at least 7.00; in that of `Cc1cc(-c2cnc3sc(N)nc3c2)cc2c1OCCN(c1nc(N)ncc1C(C)C)C2`, at least 7.00; in that of `COCCc1cnc(C)nc1N1CCOc2c(C)cc(-c3cnc4sc(N)nc4c3)cc2C1`, at least 7.00. Next, `COc1cncc(-c2cc(C)c3c(c2)CN(c2nc(N)nc(C)c2C(C)C)CCO3)c1`: at least 7.00; `CCc1nc(CN(C)C)nc(N2CCOc3c(C)cc(-c4cnc5sc(N)nc5c4)cc3C2)c1CC`: at least 7.00. The molecule `Cc1cc(-c2cccnc2)cc2c1OCCN(c1nc(N)nc(C)c1C(C)C)C2` gave a pIC50 of at least 7.00. `Cc1cc(-c2cnc(Cl)c(NS(C)(=O)=O)c2)cc2c1OCCN(c1ncc(C#N)c(N)n1)C2` gave a pIC50 of at least 7.00. As to `Cc1cc(-c2cnc3sc(N)nc3c2)cc2c1OCCN(c1ncc(C(F)(F)F)c(N)n1)C2`, the pIC50 was 6.30 to 7.00. For the molecule `Cc1cc(-c2cnc3sc(N)nc3c2)cc2c1OCCN(c1ncnc3c1CC[C@H](C)C3)C2`, the pIC50 is at least 7.00. In the case of `Cc1cc(-c2cnc3sc(N)nc3c2)cc2c1OCCN(c1nc(C(F)F)nc(C)c1C(C)C)C2`, the pIC50 is at least 7.00. Turning to `Cc1cc(-c2cnc3sc(N)nc3c2)cc2c1OCCN(c1nc(CNC3CC3)nc(C)c1C(C)C)C2`, the pIC50 was at least 7.00. In turn, `Cc1cc(-c2ccnc(F)c2)cc2c1OCCN(c1nc(N)nc(C)c1C(C)C)C2` showed a pIC50 of at least 7.00. For the molecule `Cc1cc(-c2cnc3sc(N)nc3c2)cc2c1OCCN(c1nc(C3CC3)nc(C)c1C(C)C)C2`, the pIC50 was at least 7.00.

Molecule `Cc1cc(-c2cnc3sc(N)nc3c2)cc2c1OCCN(c1nc(CC#N)nc(C)c1C(C)C)C2` gave a pIC50 of at least 7.00.
